From patent publication US6352958B1, “Cycloimido-substituted benzofused heterocyclic herbicides” (FMC Corporation, priority 1997, dated 2002)

How the values were obtained:
Format in all cases: in vivo
[1] = test system: morningglory (Ipomea lacunosa or Ipomea hederacea); assay: Preemergence herbicidal activity, morningglory; settings: Rate of Application 0.3 Kg/Ha, examined after 12-17 days
[2] = test system: wheat (Triticum aestivum var. Lew); assay: Preemergence herbicidal activity, wheat; settings: Rate of Application 0.3 Kg/Ha, examined after 12-17 days
[3] = test system: Johnsongrass (Sorghum halepense); assay: Postemergence herbicidal activity, johnsongrass; settings: rate of application 0.3 Kg/Ha, rated after 12-17 days
[4] = test system: morningglory (Ipomea lacunosa or Ipomea hederacea); assay: Postemergence herbicidal activity, morningglory; settings: rate of application 0.3 Kg/Ha, rated after 12-17 days
[5] = test system: common chickweed (Stellaria media); assay: Preemergence herbicidal activity, chickweed; settings: Rate of Application 0.3 Kg/Ha, examined after 12-17 days
[6] = test system: common chickweed (Stellaria media); assay: Postemergence herbicidal activity, chickweed; settings: rate of application 0.3 Kg/Ha, rated after 12-17 days
[7] = test system: field corn (Zea mays var. Pioneer 3732); assay: Postemergence herbicidal activity, corn; settings: rate of application 0.3 Kg/Ha, rated after 12-17 days
[8] = test system: soybean (Glycine max var. Winchester); assay: Preemergence herbicidal activity, soybean; settings: Rate of Application 0.3 Kg/Ha, examined after 12-17 days
[9] = test system: green foxtail (Setaria viridis); assay: Preemergence herbicidal activity, green foxtail; settings: Rate of Application 0.3 Kg/Ha, examined after 12-17 days
[10] = test system: velvetleaf (Abutilon theophrasti); assay: Postemergence herbicidal activity, velvetleaf; settings: rate of application 0.3 Kg/Ha, rated after 12-17 days
[11] = test system: Johnsongrass (Sorghum halepense); assay: Preemergence herbicidal activity, johnsongrass; settings: Rate of Application 0.3 Kg/Ha, examined after 12-17 days
[12] = test system: common cocklebur (Xanthium strumarium L.); assay: Preemergence herbicidal activity, cocklebur; settings: Rate of Application 0.3 Kg/Ha, examined after 12-17 days
[13] = test system: common cocklebur (Xanthium strumarium L.); assay: Postemergence herbicidal activity, cocklebur; settings: rate of application 0.3 Kg/Ha, rated after 12-17 days
[14] = test system: blackgrass (Aloepecurus myosuroides); assay: Preemergence herbicidal activity, blackgrass; settings: Rate of Application 0.3 Kg/Ha, examined after 12-17 days
Experimental: The benzofused heterocyclic compounds of this invention were tested for pre- and postemergence herbicidal activity using a variety of crops and weeds. The test plants included soybean (Glycine max var. Winchester), field corn (Zea mays var. Pioneer 3732), wheat (Triticum aestivum var. Lew), morningglory (Ipomea lacunosa or Ipomea hederacea), velvetleaf (Abutilon theophrasti), green foxtail (Setaria viridis), Johnsongrass (Sorghum halepense), blackgrass (Aloepecurus myosuroides), common chickweed (Stellaria media), and common cocklebur (Xanthium strumarium L.).
For preemergence testing, two disposable fiber flats (8 cm×15 cm×25 cm) for each rate of application of each candidate herbicide were filled to an approximate depth of 6.5 cm with steam-sterilized sandy loam soil. The soil was leveled and impressed with a template to provide five evenly spaced furrows 13 cm long and 0.5 cm deep in each flat. Seeds of soybean, wheat, corn, green foxtail, and johnsongrass were planted in the furrows of the first flat, and seeds of velvetleaf, morningglory, common chickweed, cocklebur, and blackgrass were planted in the furrows of the second flat. The five-row template was employed to firmly press the seeds into place. A topping soil of equal portions of sand and sandy loam soil was placed uniformly on top of each flat to a depth of approximately 0.5 cm. Flats for postemergence testing were prepared in the same manner except that they were planted 9-14 days prior to the preemergence flats and were placed in a greenhouse and watered, thus allowing the seeds to germinate and the foliage to develop.
In both pre- and postemergence tests, a stock solution of the candidate herbicide was prepared by dissolving 0.27 g of the compound in 20 mL of water/acetone (50/50) containing 0.5% v/v sorbitan monolaurate. For an application rate of 3000 g/ha of herbicide a 10 mL portion of the stock solution was diluted with water/acetone (50/50) to 45 mL.
The preemergence flats were initially subjected to a light water spray. The four flats were placed two by two along a conveyor belt (i.e., the two preemergence followed by the two postemergence flats). The conveyor belt fed under a spray nozzle mounted about ten inches above the post-emergent foliage. The preemergent flats were elevated on the belt so that the soil surface was at the same level below the spray nozzle as the foliage canopy of the postemergent plants. The spray of herbicidal solution was commenced and once stabilized, the flats were passed under the spray at a speed to receive a coverage equivalent of 100 L/ha. At this coverage the application rates are those shown in the above table for the individual herbicidal solutions. The preemergence flats were watered immediately thereafter, placed in the greenhouse and watered regularly at the soil surface. The postemergence flats were immediately placed in the green-house and not watered until 24 hours after treatment with the test solution. Thereafter they were regularly watered at ground level. After 12-17 days the plants were examined and the phytotoxicity data were recorded.
Phytotoxicity data were taken as percent control. Percent control was determined by a method similar to the 0 to 100 rating system disclosed in “Research Methods in Weed Science,” 2nd ed., B. Truelove, Ed.; Southern Weed Science Society; Auburn University, Auburn, Ala., 1977.

[15] = test system: wheat (Triticum aestivum var. Lew); assay: Postemergence herbicidal activity, wheat; settings: rate of application 0.3 Kg/Ha, rated after 12-17 days
[16] = test system: field corn (Zea mays var. Pioneer 3732); assay: Preemergence herbicidal activity, corn; settings: Rate of Application 0.3 Kg/Ha, examined after 12-17 days
[17] = test system: green foxtail (Setaria viridis); assay: Postemergence herbicidal activity, green foxtail; settings: rate of application 0.3 Kg/Ha, rated after 12-17 days
[18] = test system: velvetleaf (Abutilon theophrasti); assay: Preemergence herbicidal activity, velvetleaf; settings: Rate of Application 0.3 Kg/Ha, examined after 12-17 days
[19] = test system: soybean (Glycine max var. Winchester); assay: Postemergence herbicidal activity, soybean; settings: rate of application 0.3 Kg/Ha, rated after 12-17 days

For `CC(=O)OC(C)c1cc2c(Cl)cc(F)c(-n3c(=O)cc(C(F)(F)F)n(C)c3=O)c2o1` (stereo not shown) [Compound 246], the “PREEMERGENCE HERBICIDAL ACTIVITY (% CONTROL) IPOSS” value [1] was 100%, the “PREEMERGENCE HERBICIDAL ACTIVITY (% CONTROL) WHT” value [2] was 100% and the “Postemergence herbicidal activity (% control) SORHA” value [3] was 100%. For the same molecule, the “Postemergence herbicidal activity (% control) IPOSS” value [4] was 100%, the “PREEMERGENCE HERBICIDAL ACTIVITY (% CONTROL) STEME” value [5] was 100% and the “Postemergence herbicidal activity (% control) STEME” value [6] was 100%. The “Postemergence herbicidal activity (% control) CRN” value [7] was 100%, the “PREEMERGENCE HERBICIDAL ACTIVITY (% CONTROL) SOY” value [8] was 100% and the “PREEMERGENCE HERBICIDAL ACTIVITY (% CONTROL) SETVI” value [9] was 100%. The “Postemergence herbicidal activity (% control) ABUTH” value [10] was 100%, the “PREEMERGENCE HERBICIDAL ACTIVITY (% CONTROL) SORHA” value [11] was 100% and the “PREEMERGENCE HERBICIDAL ACTIVITY (% CONTROL) XANPE” value [12] was 100%. For the same molecule, the “Postemergence herbicidal activity (% control) XANPE” value [13] was 100%, the “PREEMERGENCE HERBICIDAL ACTIVITY (% CONTROL) ALOMY” value [14] was 100% and the “Postemergence herbicidal activity (% control) WHT” value [15] was 100%. The “PREEMERGENCE HERBICIDAL ACTIVITY (% CONTROL) CRN” value [16] was 100%, the “Postemergence herbicidal activity (% control) SETVI” value [17] was 100% and the “PREEMERGENCE HERBICIDAL ACTIVITY (% CONTROL) ABUTH” value [18] was 100%. The “Postemergence herbicidal activity (% control) SOY” value [19] was 95%.

For `CC(=O)N(C(C)=O)c1nc2c(-n3c(=O)cc(C(F)(F)F)n(C)c3=O)c(F)cc(Br)c2o1` [Compound 100], the “PREEMERGENCE HERBICIDAL ACTIVITY (% CONTROL) IPOSS” value [1] was 100%, the “PREEMERGENCE HERBICIDAL ACTIVITY (% CONTROL) WHT” value [2] was 30% and the “Postemergence herbicidal activity (% control) SORHA” value [3] was 40%. The “Postemergence herbicidal activity (% control) IPOSS” value [4] was 100%, the “PREEMERGENCE HERBICIDAL ACTIVITY (% CONTROL) STEME” value [5] was 20% and the “Postemergence herbicidal activity (% control) STEME” value [6] was 50%. The “Postemergence herbicidal activity (% control) CRN” value [7] was 60%, the “PREEMERGENCE HERBICIDAL ACTIVITY (% CONTROL) SOY” value [8] was 40% and the “PREEMERGENCE HERBICIDAL ACTIVITY (% CONTROL) SETVI” value [9] was 50%. For the same molecule, the “Postemergence herbicidal activity (% control) ABUTH” value [10] was 90%, the “PREEMERGENCE HERBICIDAL ACTIVITY (% CONTROL) SORHA” value [11] was 70% and the “Postemergence herbicidal activity (% control) XANPE” value [13] was 50%. For the same molecule, the “PREEMERGENCE HERBICIDAL ACTIVITY (% CONTROL) ALOMY” value [14] was 60%, the “Postemergence herbicidal activity (% control) WHT” value [15] was 40% and the “PREEMERGENCE HERBICIDAL ACTIVITY (% CONTROL) CRN” value [16] was 80%. For the same molecule, the “Postemergence herbicidal activity (% control) SETVI” value [17] was 30%, the “PREEMERGENCE HERBICIDAL ACTIVITY (% CONTROL) ABUTH” value [18] was 100% and the “Postemergence herbicidal activity (% control) SOY” value [19] was 85%.

In the case of `COCc1nc2c(-n3c(=O)cc(C(F)(F)F)n(C)c3=O)c(F)cc(Br)c2o1` [Compound 96], the “PREEMERGENCE HERBICIDAL ACTIVITY (% CONTROL) IPOSS” value [1] is reported as 100%, the “PREEMERGENCE HERBICIDAL ACTIVITY (% CONTROL) WHT” value [2] is reported as 90% and the “Postemergence herbicidal activity (% control) SORHA” value [3] is reported as 100%. The “Postemergence herbicidal activity (% control) IPOSS” value [4] was 100%, the “PREEMERGENCE HERBICIDAL ACTIVITY (% CONTROL) STEME” value [5] was 100% and the “Postemergence herbicidal activity (% control) STEME” value [6] was 100%. The “Postemergence herbicidal activity (% control) CRN” value [7] was 90%, the “PREEMERGENCE HERBICIDAL ACTIVITY (% CONTROL) SOY” value [8] was 100% and the “PREEMERGENCE HERBICIDAL ACTIVITY (% CONTROL) SETVI” value [9] was 100%. For the same molecule, the “Postemergence herbicidal activity (% control) ABUTH” value [10] was 100%, the “PREEMERGENCE HERBICIDAL ACTIVITY (% CONTROL) SORHA” value [11] was 95% and the “Postemergence herbicidal activity (% control) XANPE” value [13] was 100%. The “PREEMERGENCE HERBICIDAL ACTIVITY (% CONTROL) ALOMY” value [14] was 90%, the “Postemergence herbicidal activity (% control) WHT” value [15] was 90% and the “PREEMERGENCE HERBICIDAL ACTIVITY (% CONTROL) CRN” value [16] was 95%. The “Postemergence herbicidal activity (% control) SETVI” value [17] was 100%, the “PREEMERGENCE HERBICIDAL ACTIVITY (% CONTROL) ABUTH” value [18] was 100% and the “Postemergence herbicidal activity (% control) SOY” value [19] was 100%.
